Assay results from publication PMC7669869, “AdipoR1/AdipoR2 dual agonist recovers nonalcoholic steatohepatitis and related fibrosis via endoplasmic reticulum-mitochondria axis” (Nature Communications, 2020).
“Also recorded” adds a separate entry of the source. Non-standard residues stand in square brackets, D forms with d. Residues, ends and D or L forms follow the SMILES beside them. Nva = CCC[C@H](N)C(=O)O

Key:
[1] = tested on: αSMA expression in LX2 cells; assay: Western blotting for αSMA expression in LX2; format: cell-based, human; conditions: LX2, 200 μM peptide, 48 h; western blot; in words
Method: Hepatoma carcinoma cell line HepG2 and human hepatic activated stellate cell line LX2 used in this study were purchased from Type Culture Collection of the Chinese Academy of Sciences (Shanghai, China). Cells were cultured in Dulbecco’s modified Eagle’s medium (DMEM) with 10% fetal bovine serum (FBS), supplemented with 1% penicillin–streptomycin (ThermoFisher Scientific, USA) at 37 °C in a humidified atmosphere of 5% CO2. In PA (Sigma, USA) induced lipid accumulation cell model, HepG2 cells were seeded into a 6-well plate at 5E5 cells per well. 0.25 mM PA and/or 200 μM candidate peptides were co-incubated with cells for 24 h. Then Oil Red O staining was performed to evaluate the accumulation of lipid droplets. BSA (Sigma, USA) was used in this experiment as the negative control. […]
Total protein was isolated from cells or liver samples using RIPA lysis buffer (50.0 mM Tris-HCl (pH = 8.0), 150.0 mM NaCl, 0.02% NaN3, 0.1% SDS, 1% NP-40, 0.5% deoxysodium cholate, 1 mM EDTA, […]). The protein concentration was quantified with BCA kit (Pierce, ThermoFisher Scientific, USA). […] After incubation with the secondary antibody, proteins were detected by enhanced chemiluminescence (Glarity^TM Western ECL Substrate, Bio-Rad, USA) and the signals were recorded and quantified with Tanon-Image Software (Shanghai, China). […]

HFD induced NASH mice = assay: HFD mice: fasting blood glucose, fasting insulin and adiponectin (ELISA); format: in vivo, mouse; conditions: JT003 500 μg kg−1 i.p. daily 4 weeks, in words
Method: The NASH model was conducted with feeding a HFD for 16 weeks combine with a MCD diet (Methionine/Choline Deficient Diet, Medicience, China) in the last 4 weeks. Mice administered a MCS diet (Methionine/Choline Sufficient Diet, Medicience, China) serves as control group. NAFLD or NASH mice treated with JT003 for 4 weeks were used to evaluate the pharmacological effects (n = 6; 500 μg kg^−1; daily intraperitoneal injection). Food and water were provided ad libitum. The body weight of mice was examined every 3 days. The diet was renewed every 7 days. JT003 was diluted in PBS.
Fasting blood glucose was measured using OneTouch UltraVue Blood Glucose Meter and test strips (Johnson&Johnson, USA) from tail nicks. After HFD fed for 14 weeks and JT003 treated for 2 weeks, oral glucose tolerance tests were performed on 8 h fasted mice. 0.5 g ml^−1 D-glucose solution (Sigma-Aldrich, USA) were oral injected to mice (2 g kg^−1 of bodyweight), blood glucose level was recorded at baseline, 15, 30, 60, 120 min
(§1) The levels of ALT, AST, TC and TG in serum were determined using certain commercial assay kits (Nanjing Jiancheng Bioengineering Institute, China). Fasting adiponectin and insulin were quantified in plasma samples using corresponding commercially available Elisa kits (Cloud-Clone Crop, USA).

[2] = tested on: CCl4 induced liver fibrosis mice; assay: CCl4 induced liver fibrosis mice: liver appearance, body weight, HE, Sirius red, IHC (αSMA, COL1α1, CD68); format: in vivo, mouse; conditions: in words
Method: (§2) Male mice liver fibrosis was induced by intraperitoneal injection of 20% CCl4 (Sigma, USA) diluted in corn oil (Aladdin, China) every 3 days for 6 weeks (n = 6; 5 ml kg^−1 body weight). Mice injected with equivalent volume of corn oil serves as control group (n = 6). Liver fibrosis mice treated with JT003 for 3 weeks were used to evaluated the pharmacological effects (n = 6; 500 μg kg^−1; daily intraperitoneal injection).
(§3) The levels of TG and HYP in liver tissue were detected with certain commercial assay kit (Nanjing Jiancheng Bioengineering Institute, China). Formalin-fixed liver tissues were embedded in paraffin, sectioned into 5 μm slices. After deparaffinization and rehydration of the section slices, they were stained with Haematoxylin and Eosin or Periodic Acid-Schiff. For the detection of liver collagen content, Sirius Red staining for collagen was performed. OCT-embedded frozen liver tissues were sectioned into 12 μm slices, and Oil Red O staining was performed. The cryostat-cut slices were stained with freshly prepared Oil Red O working solution for 7 min Two independent experimenters who were blinded to the treatment evaluated the staining slides and analyzed the score for steatosis, glucogen accumulation and collagen proliferation area.
Paraffin-embedded liver slices were deparaffinized and rehydrated, antigen retrieval was performed under the high pressure and temperature in 0.01 M sodium citrate buffer (pH = 6.0). To quench the endogenous peroxidase activity, the slices were then incubated with 1% hydrogen peroxide in methanol for 10 min in room temperature. Then slices were incubated with corresponding primary antibodies. After washing, HRP-conjugated secondary antibodies specific to the species of the primary antibodies were used. After the section were developed with DAB, hematoxylin staining was performed for cell counting.

[3] = tested on: CCl4 induced liver fibrosis mice; assay: CCl4 mice: serum ALT, AST and liver HYP; format: in vivo, mouse; parameters: AST, Supplementary Figure 14 / HYP, Supplementary Figure 14: unit not given here; conditions: for HYP, Supplementary Figure 14 / AST, Supplementary Figure 14: CCl4 + JT003 mice; for HYP, Supplementary Figure 14: liver; for AST, Supplementary Figure 14: serum
Method: as §2, §1, §3

Compound: CCC[C@H](NC(=O)[C@@H]1CCCN1)C(=O)N[C@@H](CC(C)C)C(=O)N[C@@H](Cc1ccc(O)cc1)C(=O)N[C@@H](Cc1ccc(O)cc1)C(=O)N[C@@H](Cc1ccccc1)C(=O)N[C@@H](C)C(N)=O [JT003] (H-P[Nva]LYYFA-NH2)
- expression level of αSMA in LX2 cells [1]: significantly decrease; also recorded: showed the best performance in inhibiting fibroblast formation
- HFD-induced increasing of fasting blood glucose and fasting serum insulin levels (HFD induced NASH mice): decreased
- decrease in circulating adiponectin in the HFD group (HFD induced NASH mice): reverted remarkably
- inflammation, necrosis and fibrosis area (HE and sirius red staining) ([2]; CCl4 induced liver fibrosis mice, administration dosages of 0.5 mg kg−1 and 2 mg kg−1): significantly decreased
- liver adhesion (dissected assays) ([2]; CCl4 induced liver fibrosis mice): reduced
- IHC staining of CD68 (macrophage infiltration) ([2]; CCl4 mice, JT003 500 μg kg−1): markedly reduced the inflammation
- immunohistochemical staining for αSMA and COL1α1 ([2]; CCl4 mice, JT003 500 μg kg−1): confirmed the improvement of liver fibrosis
- HYP, Supplementary Figure 14 ([3]; replicate 1): 4.654
- HYP, Supplementary Figure 14 ([3]; replicate 2): 11.7831
- HYP, Supplementary Figure 14 ([3]; replicate 3): 12.1297
- AST, Supplementary Figure 14 ([3]; replicate 1): 54.5376
- AST, Supplementary Figure 14 ([3]; replicate 2): 45.2431
- AST, Supplementary Figure 14 ([3]; replicate 3): 22.8392
- AST, Supplementary Figure 14 ([3]; replicate 4): 27.6777
- AST, Supplementary Figure 14 ([3]; replicate 5): 24.2523
- AST, Supplementary Figure 14 ([3]; replicate 6): 28.6282
- ALT, AST and HYP activities ([3]; CCl4 mice, JT003 500 μg kg−1 i.p. daily 3 weeks, in words): notably diminished
